From patent publication US20110201577A1 (published 2011)

Compound	melting point [°C]
CCOC(=O)C1=C[C@@H]2[C@H]([C@@H]3OC(C)(C)O[C@H]13)N2S(=O)(=O)c1ccc(C)cc1 (stereo partly drawn)	106 to 107
CCOC(=O)C1C[C@@H](OS(C)(=O)=O)[C@@H](NC(C)=O)[C@@H]2OC(C)(C)O[C@H]12 (stereo partly drawn)	101 to 102
CCOC(=O)C1=C[C@@H](OS(C)(=O)=O)[C@@H](NC(C)=O)[C@@H]2OC(C)(C)O[C@H]12	163 to 165
CCOC(=O)C1C[C@@H](O)[C@@H](NC(C)=O)[C@@H]2OC(C)(C)O[C@H]12 (stereo partly drawn)	156 to 158
CCOC(=O)C1=CC=C[C@H](O)[C@@H]1O	48
CCOC(=O)C1=C[C@@H](OC(CC)CC)[C@H](NC(C)=O)[C@H](O)[C@@H]1O (stereo in doubt)	154
CCOC(=O)[C@@]12C=C[C@H]([C@@H]3OC(C)(C)O[C@@H]31)N(C(C)=O)O2	89 to 90
CCOC(=O)C1=C[C@@H](OC(CC)CC)[C@H](NC(C)=O)[C@@H]2OC(C)(C)O[C@H]12	112 to 115

More lines, now with the values ahead:

melting point [°C]	Compound
119 to 120	Cc1ccc(S(=O)(=O)N[C@H]2[C@@H]3OC(C)(C)O[C@@H]3C(Br)=C[C@H]2N=[N+]=[N-])cc1
128	CC(=O)N1[C@@H]2[C@@H]3OC(C)(C)O[C@@H]3C(Br)=C[C@@H]21
153 to 154	Cc1ccc(S(=O)(=O)N[C@H]2[C@@H]3OC(C)(C)O[C@@H]3C(Br)=C[C@H]2NC(=O)OC(C)(C)C)cc1
181	CC(=O)N[C@H]1C=C(Br)[C@H]2OC(C)(C)O[C@H]2[C@@H]1Br
